Measured values: patent US20240300934A1, “COMPOUNDS FOR MODULATING MYCOBACTERIUM TUBERCULOSIS RESPONSE” (priority 2021, published 2024)
Converted amounts (≈) assume the structure as drawn. Read-outs that look alike come from different tables or passages of the source.

Assays:
[1] = test system: Mtb in bone marrow-derived macrophages (BMDMs); assay: Mtb growth in primary murine bone marrow-derived macrophages (CFU); type: cell-based, Mycobacterium tuberculosis; conditions: 10 μM; added 2 hrs post-infection; eight-day time-course
Procedure: C57BL/6J wild type mice (Jackson Laboratories) were used for extraction of bone marrow-derived macrophages. Cells were harvested and expanded in DMEM containing 10% FBS, 15% L-cell conditioned media, 2 mM L-glutamine, 1 mM sodium pyruvate, and penicillin/streptomycin as needed in a 37° C. incubator in a 5% CO2 atmosphere. […] Macrophages were lysed with water containing 0.01% sodium dodecyl sulfate and a dilution series of the samples plated on 7H10 agar for CFU determination.

[2] = Mouse plasma protein binding; type: in vitro ADME
[3] = Mouse liver microsomal stability; type: in vitro ADME; conditions: mouse liver microsomes
Procedure: (§1) Assays examining mouse and human liver microsomal stability, kinetic aqueous solubility, mouse and human plasma protein binding and stability, and human cytochrome P450 inhibition characteristics of the compounds were run by BioDuro, Incorporated, using standard protocols as previously described (Wang et al, 2020). hERG inhibition assays were also performed by BioDuro, Incorporated.

Mtb-infected J774 cells = conditions: 10 μM for 24 h; 5 days post-infection
[4] = Kinetic aqueous solubility in pH 7.4 PBS; type: physicochemical; conditions: read-out: Kinetic Aqueous Solubility S
Procedure: as §1

## CCSc1ncc(CN2CCN(c3nc4ccccc4o3)CC2)cn1 [Compound C6, 2-(4-((2-(ethylthio)pyrimidin-5-yl)methyl)piperazin-1-yl)benzo[d]oxazole]
[1]
  Mtb bacterial load / growth in primary murine BMDM (in words): significant decrease in bacterial load
[2]
  protein binding to mouse plasma: 97.0%
[3]
  MLM t1/2: 48.5 min
Mtb-infected J774 cells
  accumulation in Mtb-infected J774 cells: trend of greater C6 accumulation in the Mtb-infected J774 cells than uninfected J774 cells
[4]; PBS, pH 7.4, aqueous buffer, kinetic from dmso stock, Table 2
  solubility kinetic: 76.4 µM (≈ 27.2 µg/mL)
[4]; pH 7.4 phosphate buffered saline (PBS)
  solubility kinetic: 76.4 µM (≈ 27.2 µg/mL)
